Data from patent US11192903B2, “Zirconium-89 oxine complex as a cell labeling agent for positron emission tomography” (The United States of America, as represented by the …, priority 2014, dated 2021).
Like-named read-outs stand apart in the source and are kept apart here.

How the values were obtained:
CXCR4 = CXCR4 (Mus musculus, UniProt P70658); details: at 2 h; plerixafor 5 mg/kg i.v. 15 min before cell transfer
Experimental: A CXCR4 inhibitor, plerixafor (Adooq Bioscience, Irvine, Calif.), was used to interrogate the role of CXCR4 in BM cell migration (n=4). Mice received an i.v. injection of plerixafor (5 mg/kg) 15 min before and 1 day after the ^89Zr-oxine labeled BM cell transfer (331 kBq/2×10^7 cells). Another group of mice received concurrent i.v. injections of G-CSF (2.5 μg, n=4). Deferoxamine was injected intramuscularly 15 min before and 1, 2, 3 and 4 hr after the cell injection. Serial microPET/CT images were acquired.

BM cells [1] = tested on: BM cells
Experimental: The surface expressions of CD117, sca-1 and lineage markers (CD3, NK1.1, Ly6G, CD2, CD5 and B220) on BM cells were examined before and after ^89Zr-oxine labeling (3.15 kBq/2×10^6) and analyzed by flow cytometry using a FACS Calibur flow cytometer (Becton Dickinson, San Jose, Calif.) and analyzed using FlowJo software (Tree Star, Inc., Ashland, Oreg.). BM cell differentiation capability was examined by culturing the ^89Zr-labeled and non-labeled cells with GM-CSF (20 ng/ml) and IL-15 (25 nM) for differentiation to DCs and NK/NK-T cells (n=3). On day 10, the cells were harvested, stained with anti-CD11c, CD86, and NK1.1 antibodies, and analyzed on flow cytometry. For the GM-CSF culture, cell associated-^89Zr activity and cell number were also examined.

DCs = tested on: DCs
Experimental: (§1) After ^89Zr-oxine complex labeling, DCs were stimulated with LPS (5 ng/ml) overnight. CD8 T cells labeled with ^89Zr-oxine complex were stimulated with plate coated anti-CD3 antibody (10 μg/ml) and anti-CD28 antibody (5 μg/ml) for 3 days, then transferred to an antibody-free culture supplemented with human IL-15 (3 nM).
(§2) CTLs, both labeled and unlabeled, were activated by plate coated anti-CD3 antibody (10 μg/ml) and anti-CD28 antibody (5 μg/ml) for 1.5 day and expression of CD3, CD8, CD44, CD25, CD69, INF-γ and IL-2 which was evaluated by flow cytometry. Bone marrow-derived DCs on day 6 of culture with or without ^89Zr-oxine complex labeling were stimulated with LPS (1 ng/ml) overnight and surface expression of CD11c, CD80, CD86, CD40, MHC class I and MHC class II was examined. In another experiment, ^89Zr-labeled DCs were stimulated with LPS in the presence of OVA overnight, transferred to Rag1KO mice expressing Ly5.2 (2 million cells) pre-injected with CMFDA labeled OT-1 CD8 T cells expressing Ly5.1. Peripheral blood and splenocytes were collected 3.5 days later and dilution of CMFDA in OT-1 T cells was analyzed using flow cytometry gated on Ly5.1+ CD8 T cells.

BM cells [2] = tested on: BM cells; remark: listed apart in the source
Experimental: BM cells were incubated with 11.0-55.5 kBq/10^6 cells of ^89Zr-oxine complex in PBS at 25:1 volume ratios for 20 minutes, washed twice in RPMI media and transferred to a new tube. […] To determine cell viability and retention of ^89Zr after the labeling, BM cells were labeled with 2 different radioactivity doses, 28.12 kBq/10^6 and 8.14 kBq/10^6 cells, and cultured with SCF, FLT3L and TPO (100 ng/ml each). The number of live cells was counted using 0.4% trypan blue dye (Life Technologies) at 0 h, 2 d, 4 d, and 7 d (n=3). At each time point, the cell suspension was spun to separate the supernatant and the cell pellet, and the radioactivity of both fractions was measured by a γ-counter (WIZARD^2 automatic gamma-counter, Perkin Elmer, Waltham, Mass.).

CTLs [3] = details: TCR stimulation then withdrawal, vs non-labeled
Experimental: as §1

CTLs [4] = details: TCR stimulation
Experimental: as §2
CTLs were TCR stimulated after the ^89Zr-oxine complex labeling.

Sequence of CXCR4 (P70658 whole entry): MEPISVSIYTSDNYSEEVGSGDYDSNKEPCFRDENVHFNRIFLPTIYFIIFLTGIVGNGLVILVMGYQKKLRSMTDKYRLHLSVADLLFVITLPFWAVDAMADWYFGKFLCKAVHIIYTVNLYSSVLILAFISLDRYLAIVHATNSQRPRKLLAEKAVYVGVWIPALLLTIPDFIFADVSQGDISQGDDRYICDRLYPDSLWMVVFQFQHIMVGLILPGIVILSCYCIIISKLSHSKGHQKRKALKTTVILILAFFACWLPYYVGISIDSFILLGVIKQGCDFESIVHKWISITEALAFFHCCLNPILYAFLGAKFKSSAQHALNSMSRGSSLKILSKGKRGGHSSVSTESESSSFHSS

c1cc(CN2CCCNCCNCCCNCC2)ccc1CN1CCCNCCNCCCNCC1 [plerixafor]
migration of labeled cells to the BM (CXCR4): significantly inhibited

c1cnc2c([O][89Zr]([O]c3cccc4cccnc34)([O]c3cccc4cccnc34)[O]c3cccc4cccnc34)cccc2c1 [^89Zr-oxine complex]
capacity to proliferate and differentiate (BM cells [1]; 10 day culture with GM-CSF or IL-15): retained the capacity to proliferate and differentiate normally into mature cells
expression of CD117, sca-1 and lineage markers (BM cells [1]; BM cells, 3.15 kBq/2×10^6): at similar levels to non-labeled controls
antigen presentation to OT-1 T cells in vivo (DCs; labeled DCs stimulated with LPS and OVA, injected into mice, flow cytometry 4 days after transfer): capable of presenting the antigen and inducing T cell activation and proliferation as well as non-labeled DCs
expression of B7 molecules, CD80 and CD86, on DCs (DCs; prior to LPS activation): slightly increased expression
live cell number (BM cells [2]; BM cells labeled at 8.14 kBq/10^6 cells): slight proliferation after day 4
live cell number (BM cells [2]; BM cells labeled at 28.12 kBq/10^6 cells): slightly decreased in number
suppression of the proliferation (BM cells [2]; BM cells, lower labeling dose (8.14 kBq/10^6 cells), vs non-labeled control): approximately 50%
proliferation and contraction of labeled CTLs (CTLs [3]): similarly to the non-labeled controls
production of IFNγ and IL-2 (CTLs [4]): did not negatively affect
upregulation of CD69, CD25 and CD44 markers (CTLs [4]; labeled vs non labeled CTLs): at the similar levels
